The text below walks through data of patent US5162336A, “Tetrahydro-pyrido-indoles as cholecystokinin and gastrin antagonists” (Rhone-Poulenc Rorer Pharmaceuticals Inc., priority 1990, dated 1992).

Broadly, the pIC50 is the IC50 on a negative log10 scale, so that one unit is a factor of ten.

Each structure is given as a SMILES string. pIC50: −log10 of the molar value.

The target in this test is T1, Gastrin receptor (Cavia porcellus, UniProt H0VZC5).
T1 construct: The fundic mucosa is gently scraped off the submucosa; from tissue; host or cells: gastric glands from fundic mucosa of Hartley guinea pig
T1 sequence (H0VZC5 1-426): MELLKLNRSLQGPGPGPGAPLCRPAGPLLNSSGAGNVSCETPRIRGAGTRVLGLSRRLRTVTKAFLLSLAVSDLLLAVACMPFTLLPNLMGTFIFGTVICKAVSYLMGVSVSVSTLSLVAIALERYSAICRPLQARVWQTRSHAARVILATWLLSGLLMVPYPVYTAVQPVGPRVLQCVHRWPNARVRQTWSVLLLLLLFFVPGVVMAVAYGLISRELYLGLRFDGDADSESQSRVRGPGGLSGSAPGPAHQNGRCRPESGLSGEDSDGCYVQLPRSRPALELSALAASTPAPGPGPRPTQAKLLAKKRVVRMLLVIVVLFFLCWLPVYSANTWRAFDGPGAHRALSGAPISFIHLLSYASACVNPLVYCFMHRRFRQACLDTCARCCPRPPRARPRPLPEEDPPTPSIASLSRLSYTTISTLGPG
Put plainly: Gastrin receptor binding assay (displacement of 125I-(Leu-15)-Gastrin from guinea pig fundic glands). Also noted: species or system guinea pig (Hartley Strain). Particulars: guinea pig fundic mucosa glands, 25° C., 30 min, read-out: In vitro Binding Data IC50 Gastrin. The method in brief:
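Isolated gastric fundic glands from Hartley guinea pig (collagenase digestion, 2x10^5 glands/ml) incubated 30 min at 25 °C under 95% O2/5% CO2 with tracer ^125I-(Leu-15)-gastrin and compound in triplicate. Bound tracer collected on glass fiber filters and gamma-counted; nonspecific defined with 25 μM (Leu-15)-gastrin stock. IC50 = concentration giving 50% loss of specific binding, from log-concentration plot.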
On the technique in general: In a radioligand displacement assay an active substance lowers the binding of a labelled ligand.
Take `CC(C)C[C@H](NC(=O)[C@H]1Cc2c([nH]c3ccccc23)CN1C(=O)Nc1cccc(F)c1)C(=O)N[C@@H](CC(=O)O)C(N)=O` [Example 65]: the pIC50 was 5.14.

Consider `CC(C)C[C@H](NC(=O)[C@H]1Cc2c([nH]c3ccccc23)CN1C(=O)Nc1ccc(Cl)c(Cl)c1)C(=O)N[C@@H](CC(=O)O)C(N)=O` [Example 66], for which the pIC50 is 6.27.

On to `CC(C)C[C@H](NC(=O)[C@H]1Cc2c([nH]c3ccccc23)CN1C(=O)Nc1cccc2ccccc12)C(=O)N[C@@H](CC(=O)O)C(N)=O` [Example 67, N-[(3R)-2-(1-naphthylcarbamoyl)-1,2,3,4-tetrahydro-9H-pyrido[3,4-b]indole-3-carboxyl]-L-leucyl-L-aspartic acid amide], for which the pIC50 is 5.70.
